Reference: ChEMBL document CHEMBL1201862, “PubChem BioAssay data set” (2004)
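Briefly, cells in 96-well plates were exposed to five compound concentrations for 48 h, and endpoints were estimated by linear interpolation. GI50 is the concentration that inhibits growth by half.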 The source made the active and inactive calls. No stated cut-off is given here; in the data, active = GI50 up to about 1.1 µM and inactive = higher.

Legend:
Assay in all cases: inhibition of tumour cell growth, NCI panel, 48 h
M14 = system: M14
COLO 205 = system: COLO 205
EKVX = system: EKVX
MDA-MB-435 = system: MDA-MB-435
IGROV-1 = system: IGROV-1
ACHN = system: ACHN
HL-60 = system: HL-60
BT-549 = system: BT-549
SR = system: SR
OVCAR-5 = system: OVCAR-5
SNB-19 = system: SNB-19
CCRF-CEM = system: CCRF-CEM
NCI-H226 = system: NCI-H226
SF-268 = system: SF-268
T47D = system: T47D
MCF7 = system: MCF7
NCI-H522 = system: NCI-H522
U-251 = system: U-251
SK-OV-3 = system: SK-OV-3
SK-MEL-2 = system: SK-MEL-2

SMILES	GI50 (M14)	GI50 (COLO 205)	GI50 (EKVX)	GI50 (MDA-MB-435)	GI50 (IGROV-1)	GI50 (ACHN)	GI50 (HL-60)	GI50 (BT-549)	GI50 (SR)	GI50 (OVCAR-5)	GI50 (SNB-19)	GI50 (CCRF-CEM)	GI50 (NCI-H226)	GI50 (SF-268)	GI50 (T47D)	GI50 (MCF7)	GI50 (NCI-H522)	GI50 (U-251)	GI50 (SK-OV-3)	GI50 (SK-MEL-2)
CC(=O)O[C@H]1C[C@H]2[C@@H](OC(C)=O)/C=C3\C[C@](C)(C(=O)[C@H](O)C(=C1C)C2(C)C)[C@@H](O)C[C@@H]3OC(=O)[C@H](O)[C@H](c1ccccc1)N(C)C	> 100 µM (inactive)	> 100 µM (inactive)	> 100 µM (inactive)	> 100 µM (inactive)	> 100 µM (inactive)	> 100 µM (inactive)	> 100 µM (inactive)	> 100 µM (inactive)	> 100 µM (inactive)	> 100 µM (inactive)	> 100 µM (inactive)	> 100 µM (inactive)	> 100 µM (inactive)	> 100 µM (inactive)	> 100 µM (inactive)	> 100 µM (inactive)	> 100 µM (inactive)	> 100 µM (inactive)	> 100 µM (inactive)	–
CNC(=O)Nc1ccccc1	> 100 µM (inactive)	> 100 µM (inactive)	> 100 µM (inactive)	> 100 µM (inactive)	> 100 µM (inactive)	> 100 µM (inactive)	> 100 µM (inactive)	> 100 µM (inactive)	> 100 µM (inactive)	> 100 µM (inactive)	> 100 µM (inactive)	> 100 µM (inactive)	> 100 µM (inactive)	> 100 µM (inactive)	> 100 µM (inactive)	> 100 µM (inactive)	> 100 µM (inactive)	> 100 µM (inactive)	–	> 100 µM (inactive)
Cc1cccc(/C=N/NC(=S)NCCc2ccccn2)n1	16.7 µM (inactive)	31.4 µM (inactive)	38.2 µM (inactive)	27.4 µM (inactive)	20.1 µM (inactive)	13.3 µM (inactive)	15.6 µM (inactive)	35.2 µM (inactive)	28.4 µM (inactive)	46.7 µM (inactive)	37.1 µM (inactive)	9.89 µM (inactive)	16.1 µM (inactive)	19.6 µM (inactive)	37.8 µM (inactive)	37.2 µM (inactive)	34.8 µM (inactive)	20.4 µM (inactive)	14.1 µM (inactive)	31.2 µM (inactive)
Cc1ccc(/C=C/C(=O)c2c([O-])on[n+]2-c2ccccc2)cc1	2.34 µM (inactive)	2.69 µM (inactive)	3.6 µM (inactive)	2.3 µM (inactive)	2.73 µM (inactive)	1.87 µM (inactive)	1.47 µM (inactive)	2.72 µM (inactive)	2.9 µM (inactive)	4.17 µM (inactive)	3.98 µM (inactive)	1.36 µM (inactive)	3.79 µM (inactive)	4.35 µM (inactive)	2.84 µM (inactive)	3.53 µM (inactive)	2.61 µM (inactive)	2.79 µM (inactive)	8.09 µM (inactive)	2.11 µM (inactive)
COC(=O)[C@@H]1c2c(oc3cc(CO)cc(O)c3c2=O)C=C[C@H]1O	5.97 µM (inactive)	5.5 µM (inactive)	13.3 µM (inactive)	4.15 µM (inactive)	10.8 µM (inactive)	–	2.25 µM (inactive)	2.94 µM (inactive)	5.6 µM (inactive)	9.51 µM (inactive)	17.7 µM (inactive)	1.69 µM (inactive)	25.8 µM (inactive)	6.19 µM (inactive)	2.7 µM (inactive)	2.86 µM (inactive)	1.84 µM (inactive)	10.5 µM (inactive)	20.5 µM (inactive)	15.2 µM (inactive)
O=c1[nH]c2cc(C(F)(F)F)ccc2nc1CBr	8.3 µM (inactive)	8.02 µM (inactive)	15.8 µM (inactive)	11.4 µM (inactive)	10.6 µM (inactive)	7.19 µM (inactive)	2.69 µM (inactive)	13.1 µM (inactive)	4.85 µM (inactive)	14.1 µM (inactive)	15.5 µM (inactive)	1.04 µM (active)	7.87 µM (inactive)	21.3 µM (inactive)	16 µM (inactive)	4.97 µM (inactive)	0.36 µM (active)	9.48 µM (inactive)	18.5 µM (inactive)	12.2 µM (inactive)
O[C@H]1[C@H]2[C@H](O)C[C@H](CCOCc3ccccc3)CN2C[C@H]1O	> 100 µM (inactive)	> 100 µM (inactive)	> 100 µM (inactive)	> 100 µM (inactive)	> 100 µM (inactive)	> 100 µM (inactive)	> 100 µM (inactive)	> 100 µM (inactive)	> 100 µM (inactive)	> 100 µM (inactive)	> 100 µM (inactive)	> 100 µM (inactive)	> 100 µM (inactive)	> 100 µM (inactive)	> 100 µM (inactive)	> 100 µM (inactive)	> 100 µM (inactive)	> 100 µM (inactive)	> 100 µM (inactive)	> 100 µM (inactive)
COC(=O)[C@@H](Cc1ccccc1)N1O[C@]12CCCC[C@@H]2NC(=O)OC(C)(C)C (stereo partly specified)	19.1 µM (inactive)	26.7 µM (inactive)	27.9 µM (inactive)	25.8 µM (inactive)	14.7 µM (inactive)	18.5 µM (inactive)	–	18.1 µM (inactive)	29.3 µM (inactive)	25.1 µM (inactive)	74.3 µM (inactive)	14.7 µM (inactive)	47.3 µM (inactive)	18 µM (inactive)	24.7 µM (inactive)	15.2 µM (inactive)	16.7 µM (inactive)	26.9 µM (inactive)	–	20.4 µM (inactive)
CCOP(=O)(OCC)C(N)Cc1ccc(OC)c(OC)c1 (stereo unspecified)	> 100 µM (inactive)	> 100 µM (inactive)	–	> 100 µM (inactive)	> 100 µM (inactive)	> 100 µM (inactive)	> 100 µM (inactive)	> 100 µM (inactive)	> 100 µM (inactive)	> 100 µM (inactive)	> 100 µM (inactive)	> 100 µM (inactive)	> 100 µM (inactive)	> 100 µM (inactive)	> 100 µM (inactive)	45.3 µM (inactive)	> 100 µM (inactive)	> 100 µM (inactive)	–	> 100 µM (inactive)
c1ccc(C(=NNc2nc3ccccc3o2)c2ccccn2)nc1	0.0281 µM (active)	< 0.01 µM (active)	< 0.0162 µM (active)	0.232 µM (active)	–	0.0198 µM (active)	0.0439 µM (active)	0.0908 µM (active)	0.0388 µM (active)	< 0.0175 µM (active)	0.194 µM (active)	< 0.01 µM (active)	< 0.01 µM (active)	0.0841 µM (active)	< 0.01 µM (active)	< 0.0161 µM (active)	0.0776 µM (active)	0.0998 µM (active)	0.0292 µM (active)	0.0883 µM (active)
COc1ccc(-c2cc(-c3ccccc3)n(C3OC(COC(C)=O)C(OC(C)=O)C(OC(C)=O)C3OC(C)=O)c(=S)c2C#N)cc1 (stereo unspecified)	8 µM (inactive)	11.3 µM (inactive)	14.9 µM (inactive)	6.89 µM (inactive)	14.8 µM (inactive)	15.2 µM (inactive)	2.61 µM (inactive)	12.4 µM (inactive)	13.6 µM (inactive)	15.7 µM (inactive)	11.1 µM (inactive)	–	5.87 µM (inactive)	14.2 µM (inactive)	4.69 µM (inactive)	25.4 µM (inactive)	5.37 µM (inactive)	6.79 µM (inactive)	18.8 µM (inactive)	–
O=C1/C(=C/c2ccccc2)Oc2cc(O)ccc21	> 100 µM (inactive)	> 100 µM (inactive)	> 100 µM (inactive)	> 100 µM (inactive)	> 100 µM (inactive)	> 100 µM (inactive)	> 100 µM (inactive)	> 100 µM (inactive)	> 100 µM (inactive)	–	> 100 µM (inactive)	> 100 µM (inactive)	> 100 µM (inactive)	> 100 µM (inactive)	> 100 µM (inactive)	> 100 µM (inactive)	70.3 µM (inactive)	> 100 µM (inactive)	> 100 µM (inactive)	–
O=C1CSC(c2cc3cc(Br)ccc3nc2Cl)N1c1ccc(Cl)cc1 (stereo unspecified)	21.1 µM (inactive)	17.9 µM (inactive)	27.2 µM (inactive)	16.8 µM (inactive)	16.8 µM (inactive)	13.5 µM (inactive)	20.7 µM (inactive)	26.8 µM (inactive)	15.1 µM (inactive)	94.8 µM (inactive)	42.7 µM (inactive)	7.71 µM (inactive)	39.2 µM (inactive)	22.2 µM (inactive)	21 µM (inactive)	17.9 µM (inactive)	17.8 µM (inactive)	–	43.3 µM (inactive)	14.7 µM (inactive)
COc1ccc(/C=C2\N/C(=N\N=C/C(O)C(O)C(O)C(O)CO)NC2=O)cc1 (stereo unspecified)	19.4 µM (inactive)	44.6 µM (inactive)	> 100 µM (inactive)	26.2 µM (inactive)	73.6 µM (inactive)	32.2 µM (inactive)	> 100 µM (inactive)	24.6 µM (inactive)	45.2 µM (inactive)	> 100 µM (inactive)	–	38.1 µM (inactive)	39.3 µM (inactive)	22.7 µM (inactive)	12.5 µM (inactive)	23.1 µM (inactive)	20.3 µM (inactive)	20.7 µM (inactive)	24.9 µM (inactive)	17.8 µM (inactive)
